Source: patent US11800869B2, “Use of 6-oxo-1,4,5,6-tetrahydropyridazine-3-carboxylic acid, 1-methyl 6-oxo-1,4,5,6-tetrahydropyridazine-3-carboxylic acid and 1-alkyl-6-oxo-1,4,5,6-tetrahydropyridazine-3-carboxylic acid for improving growth performance in plants” (Advanced Crop Chem LLP, priority 2020, dated 2023)
Marks after values point to notes of the source that are not given here.

Tests used:
Assay type in all cases: in vivo
field grown wheat = assay: Field grown wheat plots, foliar treatment, yield (Example 12); conditions: foliar treatment at Zadocks GS 30
Protocol: Field grown wheat plants (Var: AWC 13) were given foliar treatment at Zadoks GS 25-26 (FIG. 1) of 6-oxo-1,4,5,6 tetrahydropyridazine-3-carboxylic acid (THP) or 1-methyl 6-oxo-1,4,5,6 tetrahydropyridazine-3-carboxylic acid (MTHP) both at 100 g in 200 L water plus 0.25% Nouryon wetter. Plants were grown under standard UK wheat growing cultural practice (https://andb.org.uk/wheatgg). Yield was assessed at harvest.
Nine field grown wheat plots (20 m^2) were established. In each plot, the area was split into two and one half treated with 6-oxo-1,4,5,6 tetrahydropyridazine-3-carboxylic acid (THP) to assess for effects on yield. Plants were treated at Zadocks GS 30 as described in example 6 under standard cultural practices. The average yield response compared to the untreated plants across all sites was 0.596 tons per hectare.

Wheat = assay: Foliar treatment dose series, root and shoot fresh weight, wheat (Example 8); conditions: 35 days post treatment; for Root, FWt: dose 0: 1.8; for Shoot, FWt: dose 0: 3.2
Protocol: Corn and wheat plants were given a foliar treatment […] (as described in Example 2) with 6-oxo-1,4,5,6 tetrahydropyridazine-3-carboxylic acid (THP) and then assessed for root and shoot biomass. Three treatment dosages were applied (Table 2). Plants were grown in a greenhouse with a diurnal cycle of 55-75F with ambient light. The plants were grown in a coarse river sand in 4″ pots with 0.5 g of Osmacote/pot. The mean root and shoot fresh weights were assessed at 35 days post treatment.

wheat seedlings = assay: Foliar treatment of wheat seedlings, recovery from drought stress (Example 18); set-up: dose or concentration left out as unconfirmed; conditions: Drought stressed 10 days then 16 days regrowth
Protocol: Sets of wheat seedlings were given two foliar treatments with 6-oxo-1,4,5,6-tetrahydropyridazine-3-carboxylic acid to examine seedling recovery from drought stress. […] Seedlings were given two foliar treatments: the first at Zadoks GS 12 and at Zadoks GS 14 (FIG. 1). The plants were grown in a greenhouse and fed a standard plant nutrient solution. The plants were drought stressed for 10 days after which water and nutrients were resumed and the plants were allowed to grow for 16 days.

Wheat seeds = assay: Wheat seed treatment, seedling emergence at two temperatures (Example 15); conditions: 10 g/ton of seeds
Protocol: Wheat seeds were treated with 6-oxo-1,4,5,6-tetrahydropyridizin-3-carboxylic acid at two different temperature regimes to investigate the affect on germination. Soil temperature impacts the percentage of seeds germinating and how fast seedlings emerge from the soil. Each of these parameters influences how well the plants develop and ultimately crop yield. […] Wheat seeds were treated with 6-oxo-1,4,5,6 tetrahydropyridazine-3-carboxylic acid (THP) at a rate of 10 g/ton of seeds in accordance with the methodology of example 1. Seeds were planted in 12″×12″ germination trays in a 1″ grid, 100 seeds per tray. Growth media was coarse river sand. Additionally, each cell in the grid received one granule of Osmacote approximately above where the seed was planted. Trays were irrigated every day. The seeds were then allowed to germinate at controlled environment chambers at either 10C (50F) or 20C (68 F) to examine the effects at different temperatures. The number of seedlings emerged was tracked daily.

Pepper = assay: Seed treatment plus foliar spray, root and shoot biomass and emergence, pepper (Example 2)
Protocol: Winter wheat variety AWC 13 seeds were treated with either 6-oxo-1,4,5,6-tetrahydropyridazine-3-carboxylic acid (THP) or 1-methyl 6-oxo-1,4,5,6 tetrahydropyridazine-3-carboxylic acid (MTHP) at an effective rate of 10g diluted in 2 L water plus 0.25% Nouryon wetter and applied to 1 ton of seed. These seed were planted in coarse river sand and grown in a greenhouse under ambient light at the greenhouse at 21° C. Plants were irrigated every other day with water containing 50% strength Hoaglands solution. Plants were assessed for emergence and biomass accumulation 30 days after planting. The plants from seeds treated with 6-oxo-1,4,5,6-tetrahydropyridizin-3-carboxylic acid or 1-methyl 6-oxo-1,4,5,6 tetrahydropyridazine-3-carboxylic acid had larger root biomasses (0.83, 0.85 g, dry weight/plant) compared with plants from untreated seeds (0.65 g dry weight/plant). Wheat, corn and pepper seeds were treated with 6-oxo-1,4,5,6-tetrahydropyridizine-3-carboxylic acid (THP) using the same methodology and growth conditions as described in example 1 and the resulting plants were also treated with a light foliar cover spray using an electric hand-held sprayer. (100 g in 200 L water plus 0.25% Nouryon wetter) of 6-oxo-1,4,5,6 tetrahydropyridazine-3-carboxylic acid (30 days post emergence (wheat at Zadoks GS 14 (see FIG. 1), maize at V2, Pepper at 3-4 leaf stage) and then assessed for root and shoot biomass 45 days later. At 75 days post planting the plants were assessed for root and shoot biomass as measured with dry weight.

[1] = test system: Soybean seeds, cv. Viking; assay: Soybean seed treatment, root nodulation by Bradyrhizobium japonicum (Example 19); conditions: seed treatment 0.1 mM; greenhouse 75° F; 4 weeks after planting; untreated 655.8 mg
Protocol: Soybean seed were treated with 6-oxo-1,4,5,6 tetrahydropyridazine-3-carboxylic acid to examine the effect on root nodulation by a nitrogen fixing bacterium.
Soybean seeds, cv. Viking, were treated with 6-oxo-1,4,5,6 tetrahydropyridazine-3-carboxylic acid (0.1 mM) and the resulting seedlings were grown in a greenhouse at 75° F. under natural light during a winter season. The extent of root nodulation by Bradyrhizobium japonicum, a nitrogen fixing bacterium was determined 4 weeks after planting. Plants from the untreated seeds averaged 655.8 mg of nodules per plant versus 763.7 mg for the plants from treated seeds.

[2] = foliar dose 50 g/ha in 200 L/ha
[3] = foliar dose 100 g/ha in 200 L/ha
[4] = foliar dose 200 g/ha in 200 L/ha
[5] = seed treatment plus foliar spray 100 g in 200 L, 75 days post planting

O=C1CCC(C(=O)O)=NN1 [THP, 6-oxo-1,4,5,6 tetrahydropyridazine-3-carboxylic acid]
Yield as Percent Increase over Untreated (field grown wheat; Field 1): 6.25* %
Yield as Percent Increase over Untreated (field grown wheat; Field 2): 8.7* %
Yield as Percent Increase over Untreated (field grown wheat; Field 3): −0.3%
Yield as Percent Increase over Untreated (field grown wheat; Field 4): 13.9* %
Yield as Percent Increase over Untreated (field grown wheat; Field 5): 3.0%
Yield as Percent Increase over Untreated (field grown wheat; Field 6): 3.3%
Yield as Percent Increase over Untreated (field grown wheat; Field 7): 6.5%
Yield as Percent Increase over Untreated (field grown wheat; Field 8): 9.8* %
Yield as Percent Increase over Untreated (field grown wheat; Field 9): 8.1* %
average yield response compared to the untreated plants across all sites (field grown wheat; nine field plots): 0.596 tons per hectare
Root, FWt (Wheat; [2]): 2.1 g
Shoot, FWt (Wheat; [2]): 4.4 g
Root, FWt (Wheat; [3]): 1.9 g
Shoot, FWt (Wheat; [3]): 5.2 g
Root, FWt (Wheat; [4]): 2.7 g
Shoot, FWt (Wheat; [4]): 5.8 g
Number of seed heads, avg. (wheat seedlings; untreated drought stressed 7.1, normal water 5.4): 8.3
Total foliar fresh wt., avg. (wheat seedlings; untreated drought stressed 28.2, normal water 32.3): 33.4 g
% Emergence (Wheat seeds; 10 C., 5 days after planting): 0%
% Emergence (Wheat seeds; 10 C., 6 days after planting): 0%
% Emergence (Wheat seeds; 10 C., 7 days after planting): 11%
% Emergence (Wheat seeds; 10 C., 8 days after planting): 19%
% Emergence (Wheat seeds; 10 C., 9 days after planting): 27%
% Emergence (Wheat seeds; 10 C., 10 days after planting): 60%
% Emergence (Wheat seeds; 10 C., 11 days after planting): 68%
% Emergence (Wheat seeds; 20 C., 5 days after planting): 14%
% Emergence (Wheat seeds; 20 C., 6 days after planting): 48%
% Emergence (Wheat seeds; 20 C., 7 days after planting): 80%
% Emergence (Wheat seeds; 20 C., 8 days after planting): 100%
% Emergence (Wheat seeds; 20 C., 9 days after planting): 100%
% Emergence (Wheat seeds; 20 C., 10 days after planting): 100%
% Emergence (Wheat seeds; 20 C., 11 days after planting): 100%
Root Dry Weight, % Difference vs Untreated (Pepper; [5]): 19%
Shoot Dry Weight, % Difference vs Untreated (Pepper; [5]): 9%
Emergence, % Difference vs Untreated (Pepper; seed treatment, % Emergence at 10 days post planting): 24%
nodules per plant [1]: 763.7 mg
